Experimental data: US4476117A, “Dimers of peptide amides” (Imperial Chemical Industries PLC, priority 1982, dated 1984)
Numbered stars: 1 amine (or outer) side, 2 acyl side, 3 side chain; on linkers, the order of the positions; unused ones are H or OH. Bridge positions count the residues as written; N and C are the ends. Peptide text beside a SMILES is read from it. I, II: the chains in the order shown. * marks the point of attachment. Tyr(Nα,Nα-allyl2) = C=CCN(CC=C)[C@@H](Cc1ccc(O)cc1)C(=O)*; Ethylenediamine = C(CN[*:2])N[*:1]

Experiment: tolerance in the rat, subcutaneous dose
Type: in vivo
Procedure: As an indication of the lack of toxicity of a specific compound of the invention, namely [diallyl-Tyr-Gly-Gly-Phe-Leu-NH-CH2 -]2, that compound is tolerated in the rat at a subcutaneous dose of at least 15 mg./kg.

For `C=CCN(CC=C)[C@@H](Cc1ccc(O)cc1)C(=O)NCC(=O)NCC(=O)N[C@@H](Cc1ccccc1)C(=O)N[C@@H](CC(C)C)C(=O)NCCNC(=O)[C@H](CC(C)C)NC(=O)[C@H](Cc1ccccc1)NC(=O)CNC(=O)CNC(=O)[C@H](Cc1ccc(O)cc1)N(CC=C)CC=C` [Example 1, (diallyl-Tyr-Gly-Gly-Phe-Leu-NH-CH2 -)2 bis-trifluoroacetate] (I: {Tyr(Nα,Nα-allyl2)}-GGFL / II: {Tyr(Nα,Nα-allyl2)}-GGFL; linker I:C-II:C via Ethylenediamine), the tolerated subcutaneous dose was “at least 15 mg./kg”.
